Data published in patent US20060222647A1, “Methods and compositions for modulating the activity of PDE5” (priority 1993, published 2006).
Read-outs that look alike come from different tables or passages of the source. Values belong to the compound of their own block, whether it stands above or below them.

What was measured:
[1] = biological target: expressed bovine cGB-PDE cDNA protein product (Bos taurus, UniProt Q28156); experiment: cGMP phosphodiesterase activity of extracts of COS cells transfected with bovine cGB-PDE, in presence of PDE inhibitors; format: biochemical
cGB-PDE = cGB-PDE (Bos taurus, UniProt Q28156); experiment: Metal dependence of cGB-PDE PDE activity; format: biochemical
Method: The catalytic domains of mammalian PDEs and a Drosophila PDE contain two tandem conserved sequences (HX3 HX24 26 E) that are typical Zn^2+-binding motifs in Zn^2+ hydrolases such as thermolysin (Vallee and Auld, Biochem., 29: 5647-5659 (1990)). cGB-PDE binds Zn^2+ in the presence of large excesses of Mg^2+, Mn^2+, Fe^2+, Fe^3+, Ca^2+ or Cd^2+. In the absence of added metal, cGB-PDE has a PDE activity that is approximately 20% of the maximum activity that occurs in the presence of 40 mM Mg^2+, and this basal activity is inhibited by 1,10-phenanthroline or EDTA. […] PDE activity is stimulated by addition of Zn^2+ (0.02-1 μM) or Co^2+([…]), but not by Fe^2+, Fe^3+, Ca^2+, Cd^2+, or Cu^2+. Zn increases the basal PDE activity up to 70% of the maximum stimulation produced by 40 mM Mg^2+. The stimulatory effect of Zn^2+ in these assays may be compromised by an inhibitory effect that is caused by Zn^2+ concentrations>1 μM. The Zn^2+-supported PDE activity and Zn^2+ binding by cGB-PDE occur at similar concentrations of Zn^2+ cGB-PDE thus appears to be a Zn^2+ hydrolase and Zn^2+ appears to play a critical role in the activity of the enzyme. See, Colbran et al., The FASEB J., 8: Abstract 2148 (Mar. 15, 1994).

bovine cGB-PDE = biological target: T1, bovine cGB-PDE (Bos taurus, UniProt Q28156); experiment: [3H]cGMP-binding assay of extracts of COS-7 cells transfected with pCDM8-cGB-PDE
T1 construct: which contains the entire coding region of cGB-8; made in house; host or cells: COS-7 cells, whole-cell extract
Method: Cell extracts were assayed for [^3H]cGMP-binding activity in the absence or presence of 0.2 mM 3-isobutyl-1-methylaxanthine (IBMX) (Sigma), a competitive inhibitor of cGMP hydrolysis. The cGMP binding assay, modified from the assay described in Thomas I, supra, was conducted in a total volume of 80 μl. […] Assays were carried out in the absence and presence of 0.2 mM IBMX. The reaction was initiated by the addition of the cell extract, and was incubated for 60 minutes at 0° C. Filtration of the reaction mixtures was carried out as described in Thomas I, supra. Blanks were determined by parallel incubations with homogenization buffer replacing cell extracts, or with a 100-fold excess of unlabelled cGMP.
Results of the assay are set out in FIG. 7. […] The ability of IBMX to stimulate cGMP binding 2-5 fold is a distinctive property of the cGMP-binding phosphodisterases.
Results are presented in FIG. 8 wherein cGMP binding in the absence of unlabelled competitor was taken as 100% and each data point represents the average of three separate determinations.

recombinant mouse PDE5 [2] = biological target: T2, recombinant mouse PDE5 (Mus musculus, UniProt Q8CG03); experiment: PDE5 activity assay of recombinant mouse PDE5 expressed in HEK 293 cells; format: biochemical; settings: for IC50: IC50 for sildenafil inhibition
T2 construct: made in house; host or cells: HEK 293 cells, transient transfection; lysate supernatant or Mono Q fractions
Method: Phosphodiesterase assays were carried out according to established procedures. All assays were performed for 5 min (unless otherwise indicated) at 30° C. using different concentrations of cGMP (0.1-10 μM) as substrates. Protein concentrations were determined by the Coomassie Plus protein assay (Pierce).
Recombinant mouse PDE5 was expressed in HEK 293 cells. […] The cells were lysed in a small volume of homogenization buffer in order to obtain a concentrated extract, and then the cell extract was preincubated with 50 μM cGMP on ice without PDE inhibitors (filled triangles, FIGS. 11A and 11B) or with 0.2 μM sildenafil (filled circles, FIG. 11B). At different time points aliquots were diluted 1/400-1/500, and different amounts of diluted extract (additional dilution 1/5-1/10) were used for PDE5 activity assayed at 0.1 μM cGMP for 5 min at 30° C. An additional portion of 50 μM cGMP was added to the preincubation mixture at 60 min after the start of preincubation as indicated by an arrow (open triangles, FIG. 11A). PDE5 activity was expressed as pmol/min/μg of protein. […] The percent of 50 μM cGMP hydrolysis at different time points was measured using the PDE5 activity assay.
To investigate this further, PDE5 was preincubated of with 50 μM cGMP on ice and an aliquot was diluted and assayed with either 0.1 μM, 1.0 μM or […] cGMP for 5 min at 30° C. Data are expressed as fold activation of PDE5 activity after preincubation with 50 μM cGMP (FIG. 12A).
PDE5 activity was measured at 0.1 μM (FIG. 16A), 1.0 μM (FIG. 16B) or 10 μM cGMP (FIG. 16C). It was analyzed without any treatments (filled squares), or after preincubation with 50 μM cGMP on ice (filled triangles), or after preincubation with mAb/P3B2 for 30 min on ice (filled circles). Treatment of PDE5 with mAb/P3B2 for 30 min on ice preceded preincubation with 50 μM cGMP (open circles). PDE5 activity was expressed as […].
Kinetic and inhibitory characteristics of activated PDE5. […] FIG. 18A depicts a Lineweaver-Burk double-reciprocal plot (0.1-10 μM cGMP) of activated (after preincubation with cGMP on ice) (filled triangles) PDE5 and mAb/P3B2 treated PDE5 (filled circles). PDE5 activity was expressed as pmol/min/μg of protein. […] PDE5 activities, assayed at each substrate concentration without sildenafil, were expressed as 100%. Km, Vmax and IC50 values were calculated using GraphPad Prism 2.0 C (GraphPad Software, San Diego, Calif.).

D289A mutant cGB-PDE = D289A mutant cGB-PDE (Bos taurus, UniProt Q28156, D289A); experiment: cGMP-binding kinetics of D289A mutant cGB-PDE
From the text: This curvilinearity may have been due to the presence of distinct high affinity (slow) and low affinity (fast) sites of cGMP binding.

D478A mutant cGB-PDE = D478A mutant cGB-PDE (Bos taurus, UniProt Q28156, D478A); experiment: cGMP-binding kinetics of D478A mutant cGB-PDE; set-up: species or system bovine
recombinant mouse PDE5 [3] = biological target: T2, recombinant mouse PDE5; experiment: PDE5 activity assay of recombinant mouse PDE5 expressed in HEK 293 cells; format: biochemical; settings: assayed at 10 μM cGMP
[4] = biological target: native cGB-PDE and WT cGB-PDE (Bos taurus, UniProt Q28156); experiment: cGMP-binding kinetics of native and recombinant wild type cGB-PDE; set-up: species or system bovine
recombinant PDE5 = biological target: T3, recombinant PDE5 (Mus musculus, UniProt Q8CG03); experiment: cGMP saturation binding assay (Millipore filter binding); settings: 0.01-20 μM cGMP, IBMX present, 30 min on ice
T3 construct: made in house; host or cells: HEK 293 cells, transient transfection; lysate supernatant or Mono Q fractions
Method: Binding studies were conducted by the Millipore filter binding assay in a total volume of 40 μl containing binding buffer (50 mM Tris-HCl, pH 7.5, 2.0 mM EDTA, 1 mM DTT, 100 mM NaCl) and 0.1 mM IBMX in the presence of 0.01 -20 μM ^3H-cGMP. In some experiments an additional 30 min preincubation of recombinant PDE5 with monoclonal antibodies (mAb/P3B2 or mAb/P4D8) was performed before addition of cGMP. Following a 30 min incubation on ice, 1 ml of ice cold binding buffer was added to the assays. The samples were immediately filtered through a Millipore HAWP nitrocellulose membrane (pore size 0.45 μM, 24 mm diameter) and rinsed three times with ice cold binding buffer (10 ml each). The filters were dissolved in 5 ml of Filter Count™ (Packard Instrument) and counted in a liquid scintillation counter.
The cGMP saturation binding assay was employed (FIG. 14) using recombinant PDE5 without (filled squares) or with preincubation with monoclonal antibodies mAb/P3B2 (filled circles) or mAb/P4D4 (filled triangles) for 30 min on ice, to determine the Kd for cGMP binding. The binding assays were performed with 0.01-20 μM cGMP in the presence of […] for 30 min on ice. The specific binding (cpm) is calculated by subtraction of nonspecific binding from total binding. […] A linear scatchard plot of the cGMP binding data indicated one class of cGMP-binding sites. […]

[5] = activated PDE5 (preincubated with 50 μM cGMP)

- IC50 [1]: 2 µM
Structure (SMILES): CCCOc1ccccc1-c1nc2nn[nH]c2c(=O)[nH]1

- effect on basal PDE activity in absence of added metal (cGB-PDE): inhibited
Structure (SMILES): c1cnc2c(c1)ccc1cccnc12 [1,10-phenanthroline]

Structure (SMILES): O=C(O)CN(CCN(CC(=O)O)CC(=O)O)CC(=O)O [EDTA]
- effect on basal PDE activity in absence of added metal (cGB-PDE): inhibited

Structure (SMILES): CC(C)Cn1c(=O)n(C)c(=O)c2[nH]cnc21 [IBMX, 3-isobutyl-1-methylaxanthine]
- stimulation of cGMP binding (bovine cGB-PDE; 0.2 mM IBMX, 1 μM [3H]cGMP): approximately 1.8 fold

Structure (SMILES): Nc1nc2c(ncn2[C@@H]2O[C@@H]3COP(=O)(O)O[C@H]3[C@H]2O)c(=O)[nH]1 [cGMP]
- Km (recombinant mouse PDE5 [2]; [5]): 0.96 µM
- Vmax (recombinant mouse PDE5 [2]; [5]): 27 pmol/min/μg of protein
- PDE5 activation after preincubation with 50 μM cGMP (recombinant mouse PDE5 [2]; assayed at 0.1 μM cGMP, 5 min 30° C., 15 min preincubation on ice): 10 times
- PDE5 activation after preincubation with 50 μM cGMP (recombinant mouse PDE5 [2]; assayed at 1.0 μM cGMP): 2-3 times
- Vmax (recombinant mouse PDE5 [2]; non-activated PDE5 (mAb/P3B2 treated)): 8.9 pmol/min/μg of protein
- Km (recombinant mouse PDE5 [2]; non-activated PDE5 (mAb/P3B2 treated), read-out: Km for cGMP): 4.6 µM
- t1/2 of single rate of cGMP-association (D289A mutant cGB-PDE): 0.5 h
- Kd (D289A mutant cGB-PDE; read-out: Kd of cGMP binding): > 20 µM
- excess concentration of unlabelled competitor required to inhibit [3H]cGMP binding by 50% (bovine cGB-PDE; 2.5 μM [3H]cGMP): Less than 10 fold higher concentrations
- Kd (D478A mutant cGB-PDE): ~0.5 µM
- t1/2 of single cGMP-dissociation rate (D478A mutant cGB-PDE): 2.8 h
- PDE5 activation after preincubation with 50 μM cGMP (recombinant mouse PDE5 [3]): not detectable
- Kd [4]: ~2 µM
- Kd (recombinant PDE5): 0.12 µM

Structure (SMILES): COc1ccc(C2CNC(=O)C2)cc1OC1CCCC1 (stereo not drawn) [rolipram]
- IC50 [1]: > 300 µM

Structure (SMILES): CCCc1nn(C)c2c(=O)[nH]c(-c3cc(S(=O)(=O)N4CCN(C)CC4)ccc3OCC)nc12 [sildenafil]
- time PDE5 activation was sustained during preincubation with 50 μM cGMP (recombinant mouse PDE5 [2]; 0.2 μM sildenafil in preincubation mixture): at least 90 min
- IC50 (recombinant mouse PDE5 [2]; activated PDE5, assayed at 0.1 μM cGMP): 0.0006 µM
- IC50 (recombinant mouse PDE5 [2]; activated PDE5, assayed at 1.0 μM cGMP): 0.0012 µM
- IC50 (recombinant mouse PDE5 [2]; control PDE5, assayed at 0.1 μM cGMP): 0.0021 µM
- IC50 (recombinant mouse PDE5 [2]; control PDE5, assayed at 1.0 μM cGMP): 0.0049 µM
